No end group written: not given here.
Test system: canine femoral artery
Test: Influence of the peptides on the blood flow passing through canine femoral artery (VIP bioassay method of Said and Mutt)
Assay type: in vivo
Details: anesthetized beagles; 200 p mol/kg injected into the femoral artery; 0.5 to 4 minutes after injection; conclusion from Table 1 and Table 2
Procedure: The above-mentioned influence was estimated according to the VIP bioassay method proposed by Said and Mutt [see "Nature" 225, 863-864 (1970)]. After three mature beagles having the body weight of 10 kg were fasted for 18 hours, they were anesthetized with thiamylal (10 mg/kg) and Nembutal ([…]). During the experiment, physiological saline was continuously injected (2 mℓ/min.) into a vein of each beagle and the body temperature of the beagle was maintained at 37-38°C by an electric heater. The femoral artery was surgically exposed, and a polyethylene tube filled with heparin-added physiological saline was inserted in and fixed to a muscle branch of the femoral artery so that the polyethylene tube could be used as an injection route for each peptide under test. A probe of an electro-magnetic blood flowmeter was attached to the femoral artery on a peripheral side of the muscle branch so that the average flow rate of blood through the artery was recorded as time-dependent variations on a polygraphy.
A solution of 10 µg of each tested polypeptide dissolved in 25 µℓ of 0.01 N HCl was diluted with physiological saline to prepare an injectable solution of the peptide. The injectable solution was injected into the artery by means of a peristaltic pump. Each peptide was injected at the dose of 200 p mol/kg. Tested peptides included the following compounds: Compound 1: Hd(1-33)-NH2 [the invention peptide of formula (Ic)] Compound 2: Hd(1-31)-NH₂ [the invention peptide of formula (Ia)] Compound 3: VIP(1-28)-Hd(29-35)-NH₂ [the invention peptide of formula (III)] Compound 4: VIP(1-11)-Hd(12-31)-NH₂ [the invention peptide of formula (II)]
Upon elapsed times of 0.5 minute, 1 minute, 2 minutes, 3 minutes and 4 minutes after the injection of each peptide under test,the blood flow rate was measured. Increases in the femoral arterial blood flow rate (mℓ/min.) as comapred with the basal level of blood flow rate were calculated. It may be added that the test results of Table 1 and those of Table 2 were obtained through tests which were conducted by the same method but at different times.

## HSDAIFTQQYSKLLAKLALQKYLASILGSRTSP-NH2 [Compound 1, Hd(1-33)-NH₂]
  activity of increasing the blood flow rate (femoral arterial blood flow rate) compared with helodermin: enhanced activity of increasing the blood flow rate over helodermin
  sustaining of the blood-flow-rate-increasing activity compared with helodermin: effects of sustaining the blood-flow-rate-increasing activity in comparison with helodermin

## HSDAIFTQQYSKLLAKLALQKYLASILGSRT-NH2 [Compound 2, Hd(1-31)-NH₂]
  activity of increasing the blood flow rate (femoral arterial blood flow rate) compared with helodermin: enhanced activity of increasing the blood flow rate over helodermin
  sustaining of the blood-flow-rate-increasing activity compared with helodermin: effects of sustaining the blood-flow-rate-increasing activity in comparison with helodermin

— EP0450100A1, “PHYSIOLOGICALLY ACTIVE PEPTIDE” (MEIJI SEIKA KAISHA LTD., priority 1989, dated 1991)
